# Tests used:
# Conditions in all cases: growth mode: biofilm, 24 h; exposure time: 24 h
# [1] = compound: T1, CCC(C)CCCC(=O)N[C@@H](CCN)C(=O)N[C@H](C(=O)N[C@@H](CCN)C(=O)N[C@H]1CCNC(=O)[C@H]([C@@H](C)O)NC(=O)[C@H](CCN)NC(=O)[C@H](CCN)NC(=O)[C@H](CC(C)C)NC(=O)[C@@H](CC(C)C)NC(=O)[C@H](CCN)NC1=O)[C@@H](C)O [colistin]; test: minimum concentration of killing, 2-log CFU reduction of biofilm (MCK99); higher = more biofilm tolerance
# Procedure: (§1)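 Clinical P. aeruginosa isolates were grown as static biofilms for 24 h at 37 °C in LB in half-area 96-well plates, then exposed for 24 h to colistin at 1, 4, 16, 64, 256 or […]. Surviving CFU were counted by spotting serial dilutions. MCK is the lowest tested concentration giving the stated log reduction in CFU versus an untreated control; '>1024' means the reduction was not reached at the top dose, and 1 is the lowest dose tested (≤1).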
# [2] = compound: T2, NC[C@H]1O[C@H](O[C@H]2[C@H](O)[C@@H](O[C@H]3O[C@H](CO)[C@@H](O)[C@H](N)[C@H]3O)[C@H](N)C[C@@H]2N)[C@H](N)C[C@@H]1O [tobramycin]; test: minimum concentration of killing, 1-log CFU reduction of biofilm (MCK90); higher = more biofilm tolerance
# Procedure: as §1, with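 “tobramycin” for “colistin”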
# [3] = compound: T1, colistin; test: minimum concentration eradicating biofilm below detection limit (MCK-E); higher = more biofilm tolerance
# Procedure: as §1
# [4] = compound: T1, colistin; test: minimum concentration of killing, 4-log CFU reduction of biofilm (MCK99.99); higher = more biofilm tolerance
# Procedure: as §1
# [5] = compound: T2, tobramycin; test: as above
# Procedure: as §1, with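 “tobramycin” for “colistin”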
# [6] = compound: T1, colistin; test: minimum concentration of killing, 1-log CFU reduction of biofilm (MCK90); higher = more biofilm tolerance
# Procedure: as §1
# [7] = compound: T2, tobramycin; test: minimum concentration eradicating biofilm below detection limit (MCK-E); higher = more biofilm tolerance
# Procedure: as §1, with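 “tobramycin” for “colistin”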
# [8] = compound: T2, tobramycin; test: minimum concentration of killing, 2-log CFU reduction of biofilm (MCK99); higher = more biofilm tolerance
# Procedure: as §1, with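 “tobramycin” for “colistin”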
Test System,minimum concentration of killing [1] [µg/mL],minimum concentration of killing [2] [µg/mL],minimum concentration eradicating biofilm below detection limit [3] [µg/mL],minimum concentration of killing [4] [µg/mL],minimum concentration of killing [5] [µg/mL],minimum concentration of killing [6] [µg/mL],minimum concentration eradicating biofilm below detection limit [7] [µg/mL],minimum concentration of killing [8] [µg/mL]
Pseudomonas aeruginosa clinical isolate F1758,256,16,256,256,1020,64,1020,256
Pseudomonas aeruginosa clinical isolate F1759,256,≤ 1,256,256,64,64,256,4
Pseudomonas aeruginosa clinical isolate F1764,64,16,64,64,1020,16,> 1020,64
Pseudomonas aeruginosa clinical isolate F1775,256,≤ 1,256,256,16,16,1020,≤ 1
Pseudomonas aeruginosa clinical isolate F1800,256,≤ 1,1020,1020,256,16,1020,≤ 1
Pseudomonas aeruginosa clinical isolate F1823,256,4,1020,256,> 1020,64,> 1020,64
Pseudomonas aeruginosa clinical isolate F1856,16,256,64,64,1020,4,1020,1020
Pseudomonas aeruginosa clinical isolate F1862,256,64,256,256,256,256,256,256
Pseudomonas aeruginosa clinical isolate F1864,256,1020,1020,256,1020,256,> 1020,1020
Pseudomonas aeruginosa clinical isolate F1880,256,64,256,256,1020,256,1020,1020
Pseudomonas aeruginosa clinical isolate F1957,256,256,1020,256,1020,256,1020,1020
Pseudomonas aeruginosa clinical isolate F1959,64,16,64,64,1020,64,> 1020,64
Pseudomonas aeruginosa clinical isolate F1968,256,4,256,256,256,64,1020,64
Pseudomonas aeruginosa clinical isolate F2003,256,≤ 1,1020,1020,256,64,1020,4
Pseudomonas aeruginosa clinical isolate F2005,256,≤ 1,256,256,16,16,1020,16
Pseudomonas aeruginosa clinical isolate F2006,64,≤ 1,256,256,64,64,64,≤ 1
Pseudomonas aeruginosa clinical isolate F2010,256,64,1020,256,256,64,1020,64
Pseudomonas aeruginosa clinical isolate F2017,64,16,> 1020,256,256,4,> 1020,256

# Reference: the supplement of paper PMC8920030
